Nine compounds from US7125990B2, “Imidazolyl derivatives as corticotropin releasing factor inhibitors” (Bristol-Myers Squibb COmpany, priority 2001, dated 2006) can be followed below.

The target of the experiment is T1, CRF1 receptors (Homo sapiens, UniProt P34998).
T1 construct: endogenous in cells; host or cells: IMR-32 cells, transformed with 2.5 µM 5'-bromo-2'-deoxyuridine for 10 days; membrane preparation
T1 sequence (P34998 24-415): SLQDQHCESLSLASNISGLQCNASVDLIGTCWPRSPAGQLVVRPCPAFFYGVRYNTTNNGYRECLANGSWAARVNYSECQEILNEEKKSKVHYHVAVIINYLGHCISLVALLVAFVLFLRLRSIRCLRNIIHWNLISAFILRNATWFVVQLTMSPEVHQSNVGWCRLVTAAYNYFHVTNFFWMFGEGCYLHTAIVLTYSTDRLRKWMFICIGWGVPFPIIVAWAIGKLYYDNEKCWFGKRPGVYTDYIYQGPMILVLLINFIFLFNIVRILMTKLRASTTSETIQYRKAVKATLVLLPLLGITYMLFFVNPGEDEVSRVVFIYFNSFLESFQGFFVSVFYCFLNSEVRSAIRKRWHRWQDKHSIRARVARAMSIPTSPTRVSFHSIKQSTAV
The experiment is described as follows: CRF1 receptor radioligand binding assay ([125I]-oCRF competition, IMR-32 cell membranes). The following applies: IMR-32 cell membranes, [125I]-oCRF 100 pM; read-out: Ki (CRF-1R). The essentials: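 Buffer: Tris pH 7.2 with MgCl2, BSA, Triton X-100, aprotinin, leupeptin; reaction stopped with ice-cold wash and filtered. Nonspecific binding set with 10 μM oCRF.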
For `Cc1cc(C)c(-n2c(Cl)cn3c(CN(CCC(F)(F)F)Cc4ccccc4)c(C(F)(F)F)nc23)c(C)c1` [Example 327, Benzyl-[6-chloro-2-trifluoromethyl-7-(2,4,6-trimethyl-phenyl)-7H-imidazo[1,2-a]imidazol-3-ylmethyl]-(3,3,3-trifluoro-propyl)-amine], the Ki is less than 100 nM.
Turning to `CCCN(CC1CCC1)C(=O)c1c(C)nc2n1CCCN2c1c(C)cc(C)cc1C` [Example 57, 2-Methyl-8-(2,4,6-trimethyl-phenyl)-5,6,7,8-tetrahydro-imidazo[1,2-a]pyrimidine-3-carboxylic acid cyclobutylmethyl-propyl-amide], the inhibition constant (Ki) was less than 10000 nM.
In the case of `CC(C)c1ccc(-n2c3ccccc3n3c(CN(CC4CC4)CC4CC4)c(C(F)(F)F)nc23)c(Br)c1` [Example 187, [8-(2-Bromo-4-isopropyl-phenyl)-2-trifluoromethyl-8H-1,3a,8-triaza-cyclopenta[α]inden-3-ylmethyl]-bis-cyclopropylmethyl-amine], the Ki is less than 100 nM.
For `FC(F)(F)CN(Cc1c(C(F)(F)F)nc2n(-c3ccc(Cl)cc3Cl)c3ccccc3n12)CC1CC1` [Example 179, Cyclopropylmethyl-[8-(2,4-dichloro-phenyl)-2-trifluoromethyl-8H-1,3a,8-triaza-cyclopenta[α]inden-3-ylmethyl]-(2,2,2-trifluoro-ethyl)-amine], the Ki is less than 1000 nM.
Regarding `Cc1cc(C)c(N2CCCn3c2nc(C(F)(F)F)c3CN(Cc2ccccc2)CC(F)(F)F)c(C)c1` [Example 85, Benzyl-(2,2,2-trifluoro-ethyl)-[2-trifluoromethyl-8-(2,4,6-trimethyl-phenyl)-5,6,7,8-tetrahydro-imidazo[1,2-a]pyrimidin-3-ylmethyl]-amine], the Ki was less than 10000 nM.
Turning to `Cc1cc(C)c(-n2c3ccccc3n3c(CN(CC4CC4)CC4CC4)c(C(F)(F)F)nc23)c(C)c1` [Example 151, Bis-cyclopropylmethyl-[2-trifluoromethyl-8-(2,4,6-trimethyl-phenyl)-8H-1,3a,8-triaza-cyclopenta[α]inden-3-ylmethyl]-amine], the Ki is less than 100 nM.
In the case of `Cc1cc(C)c(-n2c(Cl)cn3c(CN(Cc4ccc(F)cc4)CC(F)(F)F)c(C(F)(F)F)nc23)c(C)c1` [Example 332], the Ki was less than 1000 nM.
Regarding `CCc1nc2n(c1C(=O)N(CCC(F)(F)F)Cc1ccc(Cl)cc1)CCN2c1c(C)cc(C)cc1C` [Example 14, 2-Ethyl-7-(2,4,6-trimethyl-phenyl)-6,7-dihydro-5H-imidazo[1,2-a]imidazole-3-carboxylic acid (4-chloro-benzyl)-(3,3,3-trifluoro-propyl)-amide], the Ki is less than 1000 nM.
On to `Cc1cc(C)c(N2CCCn3c2nc(C(F)(F)F)c3CN(C)Cc2ccccc2)c(C)c1` [Example 65, Benzyl-methyl-[2-trifluoromethyl-8-(2,4,6-trimethyl-phenyl)-5,6,7,8-tetrahydro-imidazo[1,2-a]pyrimidin-3-ylmethyl]-amine], for which the Ki is less than 1000 nM.
